What was measured:
Format in all cases: functional, cell-based
HCC1954 = test: Anti-proliferative activity against human HCC1954 cells assessed as cell growth inhibition incubated for 72 hrs by CCK-8 assay; settings: HCC1954, 72 h
SK-OV-3 = test: Anti-proliferative activity against human SK-OV-3 cells assessed as cell growth inhibition incubated for 72 hrs by CCK-8 assay; settings: SK-OV-3, 72 h
HeLa = test: Anti-proliferative activity against human HeLa cells assessed as cell growth inhibition incubated for 72 hrs by CCK-8 assay
DU-145 = test: Antiproliferative activity against human […] cells assessed as cell growth inhibition by SRB assay
PC-3 = test: Antiproliferative activity against human PC-3 cells assessed as cell growth inhibition by SRB assay

COc1ccc(-c2oc3cc(O)cc(O)c3c(=O)c2OCc2cn([C@@H]3O[C@H](COC(C)=O)[C@@H](OC(C)=O)[C@H](OC(C)=O)[C@H]3OC(C)=O)nn2)cc1O
IC50 (HCC1954): 43.4 µM | IC50 (SK-OV-3): 30.6 µM

COc1ccc(-c2cc(=O)c3c(C)cc(OCc4cn([C@@H]5O[C@H](COC(C)=O)[C@@H](O[C@H]6O[C@H](COC(C)=O)[C@@H](OC(C)=O)[C@H](OC(C)=O)[C@H]6OC(C)=O)[C@H](OC(C)=O)[C@H]5OC(C)=O)nn4)cc3o2)cc1
IC50 (HeLa): 14.7 µM

C[C@@]1([N+](=O)[O-])C(=O)c2cc(F)ccc2O[C@H]1CC(=O)NC12CC3CC(CC(C3)C1)C2
IC50 (DU-145): 0.64 µM | IC50 (PC-3): 0.82 µM

C[C@]1([N+](=O)[O-])C(=O)c2cc(F)ccc2O[C@@H]1CC(=O)NC12CC3CC(CC(C3)C1)C2
IC50 (DU-145): 1.65 µM | IC50 (PC-3): 1.54 µM

CC1([N+](=O)[O-])C(=O)c2cc(F)ccc2OC1CC(=O)NC12CC3CC(CC(C3)C1)C2 (racemic)
IC50 (DU-145): 1.21 µM | IC50 (PC-3): 0.94 µM
